Measured values published in PubChem BioAssay AID720512 (Broad Institute, 2013).
Active and inactive are the calls of the source. The rule behind the calls is not given here.

Target: Toxin B (TcdB) glycohydrolase, Clostridioides difficile 630
Assay: TcdB glycohydrolase inhibitors, dose response, biochemical, cherry-pick, plate reader (AID 720512)
Details: recombinant TcdB glycohydrolase activity; for activity change, negative = inhibition: at 19.5 µM (top of the series)

| Compound | activity change, negative = inhibition | AC50 |
| --- | --- | --- |
| CCC(=O)Nc1ccc2c(c1)OC[C@@H](C)N(C(=O)NC(C)C)C[C@@H](C)[C@@H](OC)CN(C)C2=O | inactive | – |
| O=C(CNS(=O)(=O)c1ccc([N+](=O)[O-])cc1)N/N=C\c1ccc(O)cc1 | inactive | – |
| Cc1ccccc1COc1ccc2oc(C)c(C(=O)O)c2c1 | inactive | – |
| COc1ccc(C(=O)NC(C(=O)NCc2ccccc2OC)C(C)C)cc1 (centres undefined) | inactive | – |
| COc1ccc(C2=NS(=O)(=O)N(C)C(C(=O)NCc3ccccc3)=C2)cc1OC | inactive | – |
| COc1ccc(-c2csc(NC(=O)c3ccccc3F)c2C(=O)O)cc1 | inactive | – |
| COc1ccc(NC(=O)c2cc(C)nc3ccccc23)c(OC)c1 | inactive | – |
| O=C(c1ccccc1F)N1CCN(c2ccc([N+](=O)[O-])c3cccnc23)CC1 | inactive | – |
| CSc1nc2c(c(=O)[nH]c(=O)n2C)n1Cc1ccccc1 | inactive | – |
| O=C(C[C@@H]1CC[C@@H]2[C@H](COC[C@@H](O)CN2C(=O)Nc2ccc(Cl)c(Cl)c2)O1)NCc1ccncc1 | inactive | – |
| O=C1Cc2cc(S(=O)(=O)NCc3ccccc3Cl)cc3c2N1CCC3 | inactive | – |
| CCCCn1c(=S)[nH]c2c(=O)n(C)c(=O)n(C)c21 | inactive | – |
| CC(C)(Oc1ccc(Cl)cc1)C(=O)NC1CC1 | inactive | – |
| O=C(Nc1ccccc1F)N(Cc1ccc(F)cc1)Cc1nc2ccccc2c(=O)[nH]1 | inactive | – |
| CCNC(=O)C[C@H]1CC[C@@H]2[C@@H](COc3ccc(NC(=O)c4ccc5c(c4)OCO5)cc3C(=O)N2C)O1 | – | > 39 µM (inactive) |
| CC1(C)CCC/C(=C\c2ccccc2)C1=O | inactive | – |
| CCNC(=O)C[C@H]1CC[C@@H]2[C@H](COc3ccc(NC(C)=O)cc3C(=O)N2C)O1 | inactive | – |
| CC(C)CNC(=O)C(=O)NCC1CCCN1S(=O)(=O)c1cccs1 (centres undefined) | inactive | – |
| CCCc1[nH]c(=O)c(C#N)c2c1CCCC2 | inactive | – |
| COc1nc(C)cc(C)c1S(=O)(=O)c1ccc(Cl)cc1 | inactive | – |
| c1ccc(-c2nnc(OCC3CCCO3)c3ccccc23)cc1 (centres undefined) | inactive | – |
| CCOC(=O)[C@@H]1[C@H]2COc3ccc(Br)cc3[C@@H]2N2C(=O)N(c3cccc(F)c3)C(=O)[C@]12C | inactive | – |

| Compound | activity change, negative = inhibition | AC50 |
| --- | --- | --- |
| CCN(CC)CCCCN1c2ccccc2Sc2ccccc21 | – | > 39 µM (inactive) |
| COc1cccc(CC(=O)OCC(=O)Nc2c(C)nn(-c3ccccc3)c2C)c1 | inactive | – |
| COc1ccccc1-n1c(CCC(=O)O)ccc1-c1ccccc1 | inactive | – |
| O=C(c1ccc2c(c1)N(Cc1ccccc1F)C(=O)c1ccccc1S2)N1CCOCC1 | inactive | – |
| CCN1CC(CNCc2cn(-c3ccc(OC)cc3)nc2-c2ccccc2Cl)CC1=O (centres undefined) | inactive | – |
| O=C(Nc1ccc(N2CCOCC2)c(Cl)c1)c1ccc(Cl)cc1 | – | > 39 µM (inactive) |
| COC1=C/C(=C/c2c(N)n3nc(CC(=O)N4CCOCC4)sc3nc2=O)C=CC1=O | – | > 39 µM (inactive) |
| C/C(CCc1ccccc1)=N\NC(=O)C1C2CCCCC21 (centres undefined) | inactive | – |
| CN(C(=O)Cn1c(=O)oc2cc(S(=O)(=O)N3CCCC3)ccc21)C1CCCCC1 | inactive | – |
| CCCNC(=O)C1CC(=O)N(c2ccc(OCC)cc2)C1 (centres undefined) | inactive | – |
| C=CCNc1n[nH]c(=S)s1 | inactive | – |
| Oc1ccc2c(ccc3[nH]cnc32)c1 | inactive | – |
| O=P1(Oc2ccccc2)OCCCS1 (centres undefined) | inactive | – |
| CNc1n[nH]c(=S)s1 | inactive | – |
| COc1cc(OC)cc(C(=O)NNC(=O)CN2C(=O)NC(C)(c3ccc(C)cc3)C2=O)c1 (centres undefined) | inactive | – |
| Cc1cccc(OCCC(=O)NCC(=O)Nc2cccc(C)c2C)c1 | – | > 39 µM (inactive) |
| Cc1ccc(-n2c(SCC(=O)O)nc3c(sc(=S)n3-c3ccc(C)c(C)c3)c2=O)cc1 | – | > 39 µM (inactive) |
| FC(F)(F)c1cc(CCN2CCNC[C@H]2Cc2cccc3ccccc23)cc(C(F)(F)F)c1 | – | > 39 µM (inactive) |
| CC(N)C(=O)NC(C(=O)N1CCCC1C(=O)NC(c1ccccc1)c1ccccc1)C(C)C (centres undefined) | inactive | – |
| COc1ccc(S(=O)(=O)N2CCC[C@H]2C(=O)N2CCC[C@H]2C(=O)NCc2ccncc2)cc1C | inactive | – |
| Oc1ccc(/C=N/n2cc(-c3ccccc3)[nH]c2=S)cc1 | inactive | – |
| CCOC(=O)c1ccc(-n2c(CCC(=O)O)ccc2-c2ccc(F)cc2)cc1 | inactive | – |

| Compound | activity change, negative = inhibition | AC50 |
| --- | --- | --- |
| C[C@@H]1CN([C@H](C)CO)S(=O)(=O)c2ccc(-c3ccncc3)cc2O[C@@H]1CN(C)Cc1ccc(Oc2ccccc2)cc1 | inactive | – |
| O=c1[nH]nc(-c2ccc(F)cc2)cc1Cc1ccccc1 | inactive | – |
| O=c1oc(-c2ccc(Br)cc2)nc2ccccc12 | inactive | – |
| COc1ccc(/C=C/c2onc(C)c2S(=O)(=O)N2CCC(C(=O)N3CCC(C)CC3)CC2)cc1 | inactive | – |
| COc1ccc(C(=O)OCC(=O)Nc2ccc3[nH]c(=O)[nH]c3c2)c(OC)c1OC | inactive | – |
| NNC(=O)CCc1nc2ccc(O)cc2[nH]1 | inactive | – |
| CC(=O)c1cccc(OCC(=O)c2cc(C)n(-c3cc(C)on3)c2C)c1 | inactive | – |
| CCOc1ccccc1/C=C/c1onc(C)c1S(=O)(=O)N1CCC(C(=O)N(CC)CC)CC1 | inactive | – |
| Cc1ccc2ccc[n+](Cc3ccccc3)c2c1 | inactive | – |
| Cc1ccc(/C=N/NC(=O)c2cccc(S(=O)(=O)Nc3ccccc3Cl)c2)o1 | inactive | – |
| Cc1nc2ccccn2c1-c1ccnn1S(=O)(=O)c1ccc(F)cc1 | inactive | – |
| CCOc1ccc(S(=O)(=O)NCc2ccccc2Cl)cc1C(N)=O | inactive | – |
| C[C@H]1CN([C@@H](C)CO)S(=O)(=O)c2ccc(-c3ccncc3)cc2O[C@H]1CN(C)Cc1ccc(Oc2ccccc2)cc1 | inactive | – |
| CN(CCN1CCOCC1)C(=O)CC1C(=O)NCCN1Cc1ccccc1C(F)(F)F (centres undefined) | inactive | – |
| CC(OC(=O)C1=COCCO1)C(=O)c1ccc(Br)cc1 (centres undefined) | inactive | – |
| Cc1cc(SCC(=O)N/N=C/c2ccco2)nc2ccccc12 | inactive | – |
| C[C@@H]1CN([C@@H](C)CO)S(=O)(=O)c2ccc(C#Cc3ccncc3)cc2O[C@H]1CN(C)C(=O)C1CC1 | inactive | – |
| O=C(COc1ccc2ccc(=O)oc2c1)NCCN1CCOCC1 | inactive | – |
| Cc1ccc(C(=O)Nc2scc(-c3ccccc3)c2C(=O)O)cc1 | – | > 39 µM (inactive) |
| O=C(NN=Cc1cc(Br)c(O)c(Br)c1)c1ccccc1NS(=O)(=O)c1cccs1 | inactive | – |
